Several values for one entry are separate records, joined by “and”; a condition that tells them apart may be missing. Identical values can stand only once. Like-named read-outs stand apart in the source and are kept apart here.
Experiments:
[1] = solubility studies of COMPOUND A (UV spectrophotometry at 312 nm); format: physicochemical
Excerpt: The spiro-oxindole compound of the invention, particularly, COMPOUND A, is relatively lipophilic and has poor water solubility.
Attempts to improve the solubility of COMPOUND A for use in a topical pharmaceutical composition, preferably as an ointment, were undertaken using a variety of solubilization techniques. The aim was to conduct a thorough investigation of the use of various pharmaceutically acceptable excipients to maximize the solubility of COMPOUND A. A series of solubility studies, which were performed using standard solubility testing techniques, was therefore carried out to identify proper excipient(s) and/or excipient combinations for achieving the target dosage strength for COMPOUND A. The solubility of COMPOUND A in these studies was determined by UV spectrophotometry using COMPOUND A's UV absorbance wavelength at 312 nm.

[2] = system: CCI-induced neuropathic pain model; test: time course of efficacy in neuropathic pain model, Chronic Constriction Injury, von Frey; format: in vivo, Sprague-Dawley rats
Experimental: Neuropathic pain is characterized by spontaneous pain and stimulus-evoked allodynia and hyperalgesia. Pharmaceutical compositions of the invention were evaluated in Chronic Constriction Injury model using Sprague-Dawley rats as described below.
An approximately 3 cm incision was made through the skin and the fascia at the mid thigh level of a rat's left hind leg using a no. 10 scalpel blade. The left sciatic nerve was exposed via blunt dissection through the biceps femoris with care to minimize haemorrhagia. Four loose ligatures were tied along the sciatic nerve using four chromic gut sutures at intervals of 1 mm to 2 mm apart. The tension of the loose ligatures was tight enough to induce slight constriction of the sciatic nerve when viewed under a dissection microscope at a magnification of 4 fold. As sham controls, the right sciatic nerve was exposed and manipulated in the same manner as described above, except sutures were not tied onto the nerve. Antibacterial ointment was applied directly into the wound, and the muscle was closed using sterilized sutures. Betadine® was applied onto the muscle and its surroundings, followed by skin closure with surgical clips.
A painful neuropathy was allowed to develop for at least 14 days in the ipsilateral leg as determined by lower paw withdrawal thresholds to a mechanical stimulus. Only those with significant hyperalgesia, as determined by reduced threshold of paw withdrawal to the von Frey filament, measured in grams, were enrolled in the study.
The response thresholds of animals to tactile stimuli were measured using the Model 2290 Electrovonfrey anesthesiometer (IITC Life Science, Woodland Hills, Calif.). Animals were placed in an elevated Plexiglass enclosure set on a mire mesh surface. After 15 minutes of accommodation, a von Frey hair was applied perpendicularly to the plantar surface of the ipsilateral hind paws of the animals with sufficient force, measured in grams, to elicit a crisp response of the paw. The response indicated a withdrawal from the painful stimulus and constituted the efficacy endpoint. The force (in grams) required to elicit a crisp withdrawal response was recorded before dosing as a baseline measurement, and at multiple time points post-dosing.
Three days prior to baseline measurement, animals were anaesthetized under isoflurane and the whole of the ipsilateral hind legs, including the upper sciatic notch thigh area, ankle and foot, was shaved. The animals were then randomly assigned to one of 4 different test groups including a vehicle control group, a 5% (w/v) Lidocaine (Xylocaine®), and 2 pharmaceutical compositions of the invention comprising COMPOUND A at 4% (w/w) containing either 5% or 10% Transcutol® P. After baseline measurement, 100 mg of the test composition was applied on the entire shaved area. The animals were then placed in plastic tubes for at least 15 minutes, to prevent early removal/ingestion of drug. Subsequently, animals were placed in the Plexiglas enclosure 15 minutes before von Frey measurement at the respective time points. Von Frey withdrawal thresholds were measured as the mean of several independent determinations made within 1-2 minutes of each other on the affected paw of each animal at 0.5, 1 and 2 hours post dosing.

[3] = system: CCI neuropathic pain model; test: efficacy of topical versus oral administration, Chronic Constriction Injury, von Frey; format: in vivo, male Sprague Dawley rats; conditions: p<0.001 vs vehicle
Excerpt: The Chronic Constriction Injury (CCI) model, an established neuropathic pain model in the rat, is used in this study to compare the levels of efficacy and systemic exposure of COMPOUND A between the topical and oral administration in male rats.
A peripheral neuropathy was induced in rats by placing loose constrictive ligatures around the common sciatic nerve as described by Bennett G J, and Xie Y-K., Pain, (1988) 33: pp. 87-107. Eight-week old male Sprague Dawley rats were anaesthetized with 3.5% isoflurane, and a 3 cm incision was made through the skin and fascia at the mid-thigh level of the animal's left hind leg using a no. 10 scalpel blade. […]
A painful neuropathy was allowed to develop in the ipsilateral leg as determined by lower paw withdrawal thresholds to a mechanical stimulus. Only those with significant hyperalgesia as determined by reduced threshold, measured in grams, to paw withdrawal to the von Frey filament were enrolled in the study.
The paw withdrawal thresholds of animals from mechanical tactile stimuli were measured using the Model 2290 Electrovonfrey anesthesiometer (IITC Life Science, Woodland Hills, Calif.). […] After 15 minutes of accommodation in this enclosure, a von Frey hair was applied perpendicularly to the plantar surface of the ipsilateral hind paws of the animals, with sufficient force, measured in grams, to elicit a crisp response of the paw. […]

solubility ([1]; aqueous solution with pH adjusted to 2, aqueous buffer, pH 2, 7.4 and 12, read-out: solubility on varying the pH of a solution): < 5 µg/mL | solubility ([1]; water, read-out: water solubility): < 5 µg/mL
SMILES: O=C1N(Cc2ccc(C(F)(F)F)o2)c2ccccc2[C@]12COc1cc3c(cc12)OCO3 [COMPOUND A, (S)-1′-{[5-(trifluoromethyl)furan-2-yl]methyl}spiro[furo[2,3-f][1,3]benzodioxole-7,3′-indol]-2′(1′H)-one]
paw withdrawal threshold, percent mean change from baseline (CFB) ([2]; 4% (w/w) in 5% Transcutol P composition, 100 mg applied, 0.5 hours post-dosing): +26.3% | paw withdrawal threshold, percent mean change from baseline (CFB) ([2]; 4% (w/w) in 5% Transcutol P composition, 1 hour post-dosing): +18.1% | paw withdrawal threshold, percent mean change from baseline (CFB) ([2]; 4% (w/w) in 10% Transcutol P composition, 100 mg applied, 0.5 hours post-dosing): +33.8% | paw withdrawal threshold, percent mean change from baseline (CFB) ([2]; 4% (w/w) in 10% Transcutol P composition, 1 hour post-dosing): +26.7% | duration of analgesic effects post-dosing ([2]; 4% (w/w) in 10% transcutol composition, from 0.5 hour): up to 2 hours | paw withdrawal threshold, percent mean change from baseline (CFB) ([3]; 25 mg/Kg oral gavage, 60 minutes post-dosing): 44.3% and 44% | paw withdrawal threshold, percent mean change from baseline (CFB) ([3]; 8% (w/w) topical, 50 mg on ipsilateral ankle and foot, 30 minutes post-dosing): 47.1% and 47%
